Reference: ChEMBL document CHEMBL1127142, “Novel conversion reaction of -lactam to -lactam. Synthesis of -lactam analogs of penam and penem antibiotics” (Bioorg Med Chem Lett, 1993)
Calls of active or inactive are those of the source. No cut-off for these calls is given here.

Tests used:
Bacteria = assay: Activity of compound tested against Gram negative bacteria at concentration of 100 ug/ml; Inactive; format: functional, organism-based
[1] = Activity of compound tested against Gram positive bacteria at concentration of 100 ug/ml; Inactive; format: functional

Compound	Activity (Bacteria)	Activity [1]
O=C(O)C1=C(C2CCCO2)S[C@@H]2[C@@H](C(=O)O)CC(=O)N12 (stereo partly drawn)	inactive	inactive
O=C(O)C1=C([C@H]2CCCO2)S[C@@H]2[C@H](C(=O)O)CC(=O)N12	inactive	inactive
CC1(C)S[C@@H]2[C@@H](C(=O)NCc3ccccc3)CC(=O)N2[C@H]1C(=O)O	inactive	inactive
O=C(O)C1=C([C@H]2CCCO2)S[C@@H]2[C@@H](C(=O)NCc3ccccc3)CC(=O)N12	inactive	inactive
